Like-named read-outs stand apart in the source and are kept apart here.
Columns and labels:
[1] = Acute toxicity in mice (oral or intraperitoneal single dose); details: mouse, in vivo, observed at least one week
Protocol: Each compound was administered orally or intraperitoneally as a single dose.

[2] = tested on: palpebral ptosis induced by a reserpine injection; experiment: Antidepressant activity: antagonism of palpebral ptosis induced by reserpine injection; format: in vivo; details: Mus musculus; mice, oral, one hour prior to reserpine 2 mg/kg ip; recorded hourly for 3 hours (Rubin's scale); read-out: ptosis reserpine ED50 (dosage which inhibits palpebral ptosis by 50%)
Protocol: The antidepressant activity of each compound was evaluated in mice from its ability to antagonize palpebral ptosis induced by a reserpine injection. The different materials were administered orally, as a preventive treatment, one hour prior to intraperitoneal injection of reserpine (2 mg/kg). The intensity of the palpebral ptosis was then recorded at hourly intervals, for a period of time of 3 hours, according to a semi-quantitative scale (Rubin's scale). The test materials were administered at several dosage levels and, for most of them, the 50% efficient dosage (ED50) which inhibits palpebral ptosis by a factor of 50% could be evaluated.

[3] = tested on: peripheral and central cholinergic effects of oxotremorine; experiment: Atropine activity: effect on peripheral and central cholinergic effects of oxotremorine; format: in vivo; details: 100 mg/kg oral, 60 minutes prior to subcutaneous oxotremorine 2 mg/kg
Protocol: In view of the detrimental atropine-like side-effect of the conventional antidepressants, this potential property was systematically investigated in the compounds of the formula (I).
The different materials were administered orally 60 minutes prior to subcutaneous oxotremorine injection at a dosage of 2 mg/kg.
15 minutes, and then 30 and 45 minutes after injection of the cholinergic agent, the various symptoms reflecting a parasympathetic stimulation were evaluated according to a semi-quantitative arbitrary scale (from 0 to 4).
peripheral cholinergic stimulation symptoms: tearfulness, salivation;
central cholinergic stimulation: trembling, Straub's phenomenon.

[4] = tested on: cardiovascular system; experiment: Effects on the cardiovascular system in dogs; format: in vivo; details: intravenous, 0.1 mg/kg to 10 mg/kg
Protocol: The compounds of the formula (I) were administered intravenously in dogs, at dosages from 0.1 mg/kg to 10 mg/kg. The changes of blood pressure, of the femoral arterial rate, of vascular resistance subsequent to said injections were recorded.

[5] = ip, intraperitoneal, read-out: LD50 ip

Structure (SMILES) | LD50 [1, 5] [mg/kg] | LD50 ([1]; oral, read-out: LD50 po) [mg/kg] | ED50 [2] [mg/kg] | inhibitor activity on cholinergic effects of oxotremorine [3] | vasoconstrictive action [4] | action on the blood pressure [4]
CC1N=C2CC(c3ccccc3)CN2C1=O (racemic) [Example 1] | > 200 | > 200 | ~33 |  |  | 
CC(C)C1N=C2CC(c3ccccc3)CN2C1=O (racemic) [Example 2] | > 200 | > 200 | > 30 |  |  | 
O=C1C(c2ccccc2)N=C2CC(c3ccccc3)CN12 (racemic) [Example 3] | > 200 | > 200 | ~30 |  |  | 
CC(C)C1N=C2CCC(c3ccccc3)CN2C1=O (racemic) [Example 10] | > 200 | > 200 | ~100 | slight inhibitor activity |  | 
O=C1C(Cc2ccccc2)N=C2CC(c3ccccc3)CN12 (stereo not shown) [Example 4] | < 200 | > 200 | < 30 |  |  | 
CCOC(=O)C1N=C2CC(c3ccccc3)CN2C1=O (stereo not shown) [Example 5] | > 200 | > 200 | ~7 |  | slightly vasoconstrictive | 
CCOC(=O)CC1N=C2CC(c3ccccc3)CN2C1=O (stereo not shown) [Example 6] | > 200 | > 200 | ~100 |  |  | slight hypotensive action
CCOC(=O)CCC1N=C2CC(c3ccccc3)CN2C1=O (stereo not shown) [Example 7] | > 200 | > 200 | ~30 |  |  | 
CSCCC1N=C2CC(c3ccccc3)CN2C1=O (stereo not shown) [Example 8] | > 200 | > 200 | ~30 |  |  | slight hypotensive action
CCOC(=O)C1N=C2CCC(c3ccccc3)CN2C1=O (stereo not shown) [Example 12] | > 200 | > 200 | ~30 |  |  | 
CCOC(=O)CCC1N=C2CCC(c3ccccc3)CN2C1=O (stereo not shown) [Example 13] | > 200 | > 200 | ~30 |  |  | 
O=C1CCN=C2CC(c3ccccc3)CN12 (stereo not shown) [Example 14] | > 200 | > 200 | 5 |  |  | 
O=C1CCN=C2CC(c3cc4ccccc4o3)CN12 (stereo not shown) [Example 15] | > 200 | > 200 | ~33 |  |  | 
O=C1CCN=C2CCC(c3ccccc3)N12 (stereo not shown) [Example 17] | > 200 | > 200 | < 100 |  |  | 
O=C1CCCN=C2CC(c3ccccc3)CN12 (stereo not shown) [Example 18] | > 200 | > 200 | < 33 |  |  | 

Reference: patent US4325954A, “Pyrrolopyrimidinones and pyrroloimidazolones and their compositions and therapeutic methods” (Laboratoires Jacques Logeais, priority 1979, dated 1982)
